In US11851431B2, “Tricyclic Janus kinase 1 inhibitors, and compositions and methods thereof” (LYNK PHARMACEUTICALS CO. LTD., priority 2018, dated 2023) one finds IC50 data, which are given here for 24 compounds.

Assay [1] addresses T1, JAK2 (Homo sapiens, UniProt O60674).
T1 construct: purchased Carna Biosciences
Put plainly: JAK biochemical microfluidic assay (Caliper EZ Reader), JAK2. As to conditions: 1 mM ATP; head prints (0.25 nM). How it is done: (§1) JAK activity was determined in the reaction buffer 50 mM HEPES, 0.01% Brij35, 10 mM MgCl2, 2 mM DTT by a microfluidic assay. The phosphorylation of a FAM labeled peptide substrate was monitored in the Caliper EZ Reader II (Perkin Elmer). The assay condition for each batch of enzyme (Carna Biosciences) was optimized to obtain 10% conversion rate of peptide substrate.
(§2) The test compounds were dissolved in DMSO to a stock concentration of 10 mM. Three-fold serially diluted compounds with top concentration of 5 μM were pre-incubated with JAK1, JAK2 or TYK2 for 10 min at ambient temperature. The final DMSO concentration of assay mixture was 1%. […] The reaction was stopped by adding 50 mM EDTA.
(§3) The percent inhibition was calculated by the following formula. % Inhibition=(Conversionmax−Conversionsample)/(Conversionmax−Conversionmin)*100 Conversionmax means the conversion rate in the positive well without addition of compound • […] means the conversion rate in the well without addition of enzyme • Conversionsample means the conversion rate of test compounds
(§4) The dose-response (percent inhibition) curve was plotted and IC50 values were determined by GraphPad software.

For assay [2], the target named is T2, JAK1 (Homo sapiens, UniProt P23458).
T2 construct: purchased Carna Biosciences
T2 sequence (P23458 whole entry): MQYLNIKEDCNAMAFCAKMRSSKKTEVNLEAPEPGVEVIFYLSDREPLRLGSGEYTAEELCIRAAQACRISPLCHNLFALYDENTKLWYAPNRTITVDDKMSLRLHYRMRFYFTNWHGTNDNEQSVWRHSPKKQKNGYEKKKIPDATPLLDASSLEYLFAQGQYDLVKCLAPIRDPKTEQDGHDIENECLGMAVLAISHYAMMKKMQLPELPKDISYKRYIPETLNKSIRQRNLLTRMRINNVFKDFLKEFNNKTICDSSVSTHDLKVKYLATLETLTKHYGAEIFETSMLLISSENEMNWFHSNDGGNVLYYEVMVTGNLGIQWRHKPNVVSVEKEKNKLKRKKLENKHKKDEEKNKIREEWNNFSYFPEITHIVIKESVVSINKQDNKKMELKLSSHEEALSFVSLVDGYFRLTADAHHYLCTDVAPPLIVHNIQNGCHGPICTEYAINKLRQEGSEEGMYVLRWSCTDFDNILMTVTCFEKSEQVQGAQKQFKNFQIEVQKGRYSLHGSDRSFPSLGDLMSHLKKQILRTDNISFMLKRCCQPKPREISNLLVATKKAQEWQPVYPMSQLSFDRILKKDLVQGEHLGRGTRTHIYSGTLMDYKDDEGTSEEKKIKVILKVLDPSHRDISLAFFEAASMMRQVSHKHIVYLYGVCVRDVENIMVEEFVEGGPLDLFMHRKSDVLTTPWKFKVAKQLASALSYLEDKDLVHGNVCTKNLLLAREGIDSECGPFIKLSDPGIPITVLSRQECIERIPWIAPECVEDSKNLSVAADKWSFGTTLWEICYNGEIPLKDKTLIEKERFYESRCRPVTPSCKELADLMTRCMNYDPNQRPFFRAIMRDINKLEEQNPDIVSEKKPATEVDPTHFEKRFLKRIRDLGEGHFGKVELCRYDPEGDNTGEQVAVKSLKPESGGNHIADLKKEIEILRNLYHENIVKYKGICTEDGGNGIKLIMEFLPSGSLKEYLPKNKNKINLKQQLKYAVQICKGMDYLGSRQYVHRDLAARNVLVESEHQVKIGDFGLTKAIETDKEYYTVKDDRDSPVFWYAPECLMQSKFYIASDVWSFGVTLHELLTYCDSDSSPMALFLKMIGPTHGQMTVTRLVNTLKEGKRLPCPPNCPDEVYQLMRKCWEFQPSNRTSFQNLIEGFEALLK
Put plainly: JAK biochemical microfluidic assay (Caliper EZ Reader), JAK1. As to conditions: 1 mM ATP; head prints (5 nM). Here is the method:
as §1, §2, §3, §4

T1 sequence (O60674 whole entry): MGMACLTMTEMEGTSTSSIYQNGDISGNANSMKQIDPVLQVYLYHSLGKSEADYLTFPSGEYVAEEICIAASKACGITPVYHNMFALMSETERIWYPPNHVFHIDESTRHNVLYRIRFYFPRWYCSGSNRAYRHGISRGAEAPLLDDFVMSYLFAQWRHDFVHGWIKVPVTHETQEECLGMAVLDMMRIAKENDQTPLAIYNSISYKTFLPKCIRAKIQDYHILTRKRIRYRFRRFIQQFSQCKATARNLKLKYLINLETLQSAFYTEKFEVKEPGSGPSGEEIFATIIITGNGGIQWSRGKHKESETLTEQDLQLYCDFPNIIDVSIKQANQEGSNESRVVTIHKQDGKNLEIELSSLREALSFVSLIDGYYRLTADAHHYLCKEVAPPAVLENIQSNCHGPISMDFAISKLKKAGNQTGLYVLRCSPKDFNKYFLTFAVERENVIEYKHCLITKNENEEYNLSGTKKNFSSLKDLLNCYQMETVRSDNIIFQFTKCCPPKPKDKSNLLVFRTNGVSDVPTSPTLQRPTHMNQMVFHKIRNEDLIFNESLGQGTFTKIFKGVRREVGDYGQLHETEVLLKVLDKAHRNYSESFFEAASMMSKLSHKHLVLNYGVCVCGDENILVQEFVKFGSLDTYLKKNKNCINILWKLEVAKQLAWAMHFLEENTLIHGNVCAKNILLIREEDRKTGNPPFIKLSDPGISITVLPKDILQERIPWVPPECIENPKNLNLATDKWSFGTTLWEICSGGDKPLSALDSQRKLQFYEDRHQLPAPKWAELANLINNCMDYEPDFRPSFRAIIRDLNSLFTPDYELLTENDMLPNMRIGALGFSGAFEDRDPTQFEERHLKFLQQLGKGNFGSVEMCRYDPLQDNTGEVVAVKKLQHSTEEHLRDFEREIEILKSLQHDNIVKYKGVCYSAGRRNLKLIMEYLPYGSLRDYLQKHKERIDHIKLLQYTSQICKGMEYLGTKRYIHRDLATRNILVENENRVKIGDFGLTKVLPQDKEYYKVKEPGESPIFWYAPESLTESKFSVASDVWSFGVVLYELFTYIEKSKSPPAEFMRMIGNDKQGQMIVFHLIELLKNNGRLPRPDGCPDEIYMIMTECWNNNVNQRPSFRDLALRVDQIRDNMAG

As usually defined, the IC50 is the concentration at which inhibition is half-maximal. Read a high IC50 as lower potency. As to `CC(C)S(=O)(=O)NC12CC(n3cnc4cnc5[nH]ccc5c43)(C1)C2` [Example 30, N-(3-(imidazo[4,5-d]pyrrolo[2,3-b]pyridin-1(6H)-yl)bicyclo[1.1.1]pentan-1-yl)propane-2-sulfonamide], the figures for the IC50 in assay [1] and in assay [2] were 226 nM and 25.5 nM, respectively. As for `N#CCC(=O)NC12CC(n3cnc4cnc5[nH]ccc5c43)(C1)C2` [Example 11, 2-Cyano-N-(3-(imidazo[4,5-d]pyrrolo[2,3-b]pyridin-1(6H)-yl)bicyclo[1.1.1]pentan-1-yl)acetamide], the IC50 in assay [1] worked out at 166 nM; in assay [2], 11.7 nM. In assay [2], `CC(C)CNC(=O)NC12CC(n3cnc4cnc5[nH]ccc5c43)(C1)C2` [Example 36, 1-(3-(Imidazo[4,5-d]pyrrolo[2,3-b]pyridin-1(6H)-yl)bicyclo[1.1.1]pentan-1-yl)-3-isobutylurea] showed an IC50 of 49.5 nM. Regarding `COCCCS(=O)(=O)NC12CC(n3cnc4cnc5[nH]ccc5c43)(C1)C2` [Example 26, N-(3-(Imidazo[4,5-d]pyrrolo[2,3-b]pyridin-1(6H)-yl)bicyclo[1.1.1]pentan-1-yl)-3-methoxypropane-1-sulfonamide], the IC50 in assay [1] came out at 849 nM; in assay [2] it was 26.2 nM.

Consider `O=C(NC12CC(n3cnc4cnc5[nH]ccc5c43)(C1)C2)OCC1CC1` [Example 19, Cyclopropylmethyl (3-(imidazo[4,5-d]pyrrolo[2,3-b]pyridin-1(6H)-yl)bicyclo[1.1.1]pentan-1-yl)carbamate], for which the figures for the 50% inhibitory concentration (IC50) in assay [1] and in assay [2] were 578 nM and 51.3 nM, respectively. As to `NC12CC(n3cnc4cnc5[nH]ccc5c43)(C1)C2` [Example 1j, 3-(Imidazo[4,5-d]pyrrolo[2,3-b]pyridin-1(6H)-yl)bicyclo[1.1.1]pentan-1-amine 2,2,2-trifluoroacetate], 278 nM corresponded to half-maximal inhibition in assay [2] (IC50). This lies in the sub-micromolar range.

In assay [2], `CN(C)S(=O)(=O)NC12CC(n3cnc4cnc5[nH]ccc5c43)(C1)C2` [Example 24, N-(3-(imidazo[4,5-d]pyrrolo[2,3-b]pyridin-1(6H)-yl)bicyclo[1.1.1]pentan-1-yl)-N′-dimethyl-1-sulfonamide] gave an IC50 of 23 nM. For `CCCC(=O)NC12CC(n3cnc4cnc5[nH]ccc5c43)(C1)C2` [Example 9, N-(3-(imidazo[4,5-d]pyrrolo[2,3-b]pyridin-1(6H)-yl)bicyclo[1.1.1]pentan-1-yl)butyramide], the figures for the IC50 in assay [1] and in assay [2] were 441 nM and 58.7 nM, respectively. In the case of `CCCS(=O)(=O)NC12CC(n3c([C@@H](C)O)nc4cnc5[nH]ccc5c43)(C1)C2` [Example 47, (R)—N-(3-(2-(1-hydroxyethyl)imidazo[4,5-d]pyrrolo[2,3-b]pyridin-1(6H)-yl)bicyclo[1.1.1]pentan-1-yl)propane-1-sulfonamide], the results for the IC50 in assay [1] and in assay [2] were 1110 nM and 48.7 nM, respectively. Taken in the same sequence, the figures for `COC1CN(C(=O)NC23CC(n4cnc5cnc6[nH]ccc6c54)(C2)C3)C1` [Example 38, N-(3-(Imidazo[4,5-d]pyrrolo[2,3-b]pyridin-1(6H)-yl)bicyclo[1.1.1]pentan-1-yl)-3-methoxyazetidine-1-carboxamide] were 3300 nM and 389 nM. On to `O=C(NC12CC(n3cnc4cnc5[nH]ccc5c43)(C1)C2)C1CC1` [Example 12, N-(3-(Imidazo[4,5-d]pyrrolo[2,3-b]pyridin-1(6H)-yl)bicyclo[1.1.1]pentan-1-yl)cyclopropanecarboxamide], for which the IC50 in assay [2] was 35.5 nM.

Regarding `N#CCS(=O)(=O)NC12CC(n3cnc4cnc5[nH]ccc5c43)(C1)C2` [Example 33, 1-Cyano-N-(3-(imidazo[4,5-d]pyrrolo[2,3-b]pyridin-1(6H)-yl)bicyclo[1.1.1]pentan-1-yl)methanesulfonamide], the half-inhibitory concentration (IC50) in assay [1] was determined as 146 nM; in assay [2] it was 14.4 nM.

In the case of `N#CCCNC(=O)NC12CC(n3cnc4cnc5[nH]ccc5c43)(C1)C2` [Example 43, 1-(2-Cyanoethyl)-3-(3-(imidazo[4,5-d]pyrrolo[2,3-b]pyridin-1(6H)-yl)bicyclo[1.1.1]pentan-1-yl)urea], the IC50 in assay [1] was determined as 223 nM; in assay [2] it was 15.6 nM. Taken in the same sequence, the figures for `Cn1cc(S(=O)(=O)NC23CC(n4cnc5cnc6[nH]ccc6c54)(C2)C3)cn1` [Example 29, N-(3-(imidazo[4,5-d]pyrrolo[2,3-b]pyridin-1(6H)-yl)bicyclo[1.1.1]pentan-1-yl)-1-methyl-1H-pyrazole-4-sulfonamide] were 992 nM and 90.5 nM. With `CCCS(=O)(=O)NC12CC(N(C)c3ncnc4[nH]ccc34)(C1)C2` [Example 49, N-(3-(Methyl(7H-pyrrolo[2,3-d]pyrimidin-4-yl)amino)bicyclo[1.1.1]pentan-1-yl)propane-1-sulfonamide], the IC50 in assay [1] and in assay [2] was over 5000 nM each time. `CC(C)(C#N)COC(=O)NC12CC(n3cnc4cnc5[nH]ccc5c43)(C1)C2` [Example 42, 2-Cyano-2-methylpropyl (3-(imidazo[4,5-d]pyrrolo[2,3-b]pyridin-1(6H)-yl)bicyclo[1.1.1]pentan-1-yl)carbamate]: the IC50 came out at 965 nM in assay [1] and 142 nM in assay [2]. Taken in the same sequence, the figures for `COC1CN(S(=O)(=O)NC23CC(n4cnc5cnc6[nH]ccc6c54)(C2)C3)C1` [Example 21, N-(3-(imidazo[4,5-d]pyrrolo[2,3-b]pyridin-1(6H)-yl)bicyclo[1.1.1]pentan-1-yl)-3-methoxyazetidine-1-sulfonamide] were 326 nM and 14.2 nM.

Consider `CNS(=O)(=O)C[C@H]1C[C@@H](n2cnc3cnc4[nH]ccc4c32)C1` [Example 44, 1-(Cis-3-(imidazo[4,5-d]pyrrolo[2,3-b]pyridin-1(6H)-yl)cyclobutyl)-N-methylmethanesulfonamide], for which the IC50 in assay [1] amounted to 604 nM; in assay [2] it was 159 nM.

Consider `O=C(NC12CC(n3cnc4cnc5[nH]ccc5c43)(C1)C2)c1ccc(Cl)cc1` [Example 15, 4-Chloro-N-(3-(imidazo[4,5-d]pyrrolo[2,3-b]pyridin-1(6H)-yl)bicyclo[1.1.1]pentan-1-yl)benzamide], for which 82.6 nM corresponded to half-maximal inhibition in assay [2] (IC50). For `CCS(=O)(=O)NC12CC(n3cnc4cnc5[nH]ccc5c43)(C1)C2` [Example 27, N-(3-(imidazo[4,5-d]pyrrolo[2,3-b]pyridin-1(6H)-yl)bicyclo[1.1.1]pentan-1-yl)ethanesulfonamide], the figures for the IC50 in assay [1] and in assay [2] were 291 nM and 20.2 nM, respectively. Take `N[C@H]1C[C@@H](n2cnc3cnc4[nH]ccc4c32)C1` [Example 2e, Cis-3-(imidazo[4,5-d]pyrrolo[2,3-b]pyridin-1(6H)-yl)cyclobutanamine 2,2,2-trifluoroacetate]: the IC50 in assay [1] is over 5000 nM; in assay [2], 2570 nM. `CC(C)OC(=O)NC12CC(n3cnc4cnc5[nH]ccc5c43)(C1)C2` [Example 16, Isopropyl (3-(imidazo[4,5-d]pyrrolo[2,3-b]pyridin-1(6H)-yl)bicyclo[1.1.1]pentan-1-yl)carbamate]: in assay [2], the IC50 came out at 64 nM. On the same count and under the same terms, next, `O=C(NC1CC1)NC12CC(n3cnc4cnc5[nH]ccc5c43)(C1)C2` [Example 35, 1-Cyclopropyl-3-(3-(imidazo[4,5-d]pyrrolo[2,3-b]pyridin-1(6H)-yl)bicyclo[1.1.1]pentan-1-yl)urea]: 235 nM; `CCN(C)S(=O)(=O)NC12CC(n3cnc4cnc5[nH]ccc5c43)(C1)C2` [Example 25, N-(3-(imidazo[4,5-d]pyrrolo[2,3-b]pyridin-1(6H)-yl)bicyclo[1.1.1]pentan-1-yl)-N′-methyl-N′-ethyl-1-sulfonamide]: 26.1 nM.
